Assay results: patent publication US20230346670A1, “Prebiotic Oral Care Compositions and Methods” (Colgate-Palmolive Company, priority 2020, published 2023)

Experiments:
Assay type in all cases: cell-based
A. actinomycetemcomitans = assay: Multi-species biofilm composition, absolute abundance (Geq/mL); conditions: repeated rinsing
Method: (§1) Biofilms are grown vertically on Calcium Deficient Hydroxyapatite (CAD-HA) disks (Hitemco Medical, Old Bethpage, USA) using the Amsterdam Active Adhesion model. Biofilms are allowed to establish during 24 h (37° C., 170 rpm) under microaerophilic conditions (6% O2, 7% CO2, 7% H2, 80% N2). After this 24 h, disks are rinsed 3 times a day for 3 minutes (RT, 250 rpm), for 3 consecutive days, by transferring the lid containing the disks to a new 24-well plate containing 2 mL/well of the appropriate substrate solution. As a negative control, PBS (pH 5.7) without substrate supplementation is used.
(§2) N-acetyl-D-glucosamine (NADG), α-D-lactose, D-(+)-trehalose and D-(+)-raffinose are selected to determine their effects on multi-species biofilm composition. Repeated rinsing of the biofilms with the substrates at a concentration of 1 M results in a significant decrease in absolute numbers in at least four of the pathogenic bacterial species tested in the assay, in comparison to the control, the results of which are described in Table 1 below. Note, NADG decreased absolute numbers of S. sobrinus. Absolute abundances of bacterial species are shown as mean ± SD (n = 3) logarithmic values of the genome equivalents per millilitre (log(Geq/mL)).

A. naeslundii = assay: as above; conditions: repeated rinsing
Method: as §1, §2

P. gingivalis = assay: as above; conditions: repeated rinsing
Method: as §1, §2

P. intermedia = assay: as above; conditions: repeated rinsing
Method: as §1, §2

S. gordonii = assay: as above; conditions: repeated rinsing
Method: as §1, §2

S. mitis = assay: as above; conditions: repeated rinsing
Method: as §1, §2

S. oralis = assay: as above; conditions: for absolute abundance of S. oralis, mean ± SD log (Geq/mL): repeated rinsing
Method: as §1, §2

S. sobrinus = assay: as above; conditions: repeated rinsing
Method: as §1, §2

multi-species biofilms = assay: Organic acid levels in supernatant of multi-species biofilms (ion chromatography); conditions: >0 production, <0 consumption, n = 3
Method: as §1
Levels of organic acids in the filter sterilized supernatant of the multi-species biofilms are measured using a 761 Compact Ion Chromatograph (Metrhohm, Switzerland) with a Metrosep Organic acids Guard/4.6 guard column. The supernatants from the substrate-treated multi-species biofilms are analyzed to gain more insight into the influence of the substrates on organic acid consumption/production.

[1] = tested on: P. intermedia virulence genes; assay: Virulence gene expression in multi-species biofilm (SYBR RT-qPCR); conditions: for fold change in DnaJ expression, geometric mean (95% C.I.) / fold change in DnaK expression, geometric mean (95% C.I.) / fold change in ECF expression, geometric mean (95% C.I.) / fold change in GroES expression, geometric mean (95% C.I.) / fold change in HtpG expression, geometric mean (95% C.I.) / fold change in KpsD expression, geometric mean (95% C.I.) / fold change in adpc expression, geometric mean (95% C.I.) / fold change in clpB expression, geometric mean (95% C.I.) / fold change in inpA expression, geometric mean (95% C.I.) / fold change in phg expression, geometric mean (95% C.I.): relative to control = 1
Method: as §1
The virulence of the substrate-treated multi-species biofilms are evaluated by analyzing the relative expression of 33 genes that are recognized as being related to some form of virulence and from 4 periodontal pathogens.
Expression of bacterial virulence genes is analyzed through SYBR RT-qPCR and normalized for bacterial housekeeping gene expression. […] These effects are illustrated in Tables 6a and 6b:
Note, for Table 6d, fold changes in virulence gene expression are determined relatively to the control condition through the 2^^-ΔΔCt method and are shown as the geometric mean (C.I.) (n = 3) of the 2^^-ΔΔCt values. All substrates are dissolved in PBS at a concentration of 1 M (upper part) or 1%(w/v) (lower part). Values between 0 and 1 represent relative downregulation, values >1 represent relative upregulation. […] NADG: N-acetyl-D-glucosamine; C.I.: 95% confidence interval.

[2] = tested on: human oral keratinocytes (HOK-18A); assay: Inflammatory mediator gene expression in keratinocytes exposed to substrate-treated biofilms (SYBR RT-qPCR); conditions: relative to control, n = 3
Method: Cultures of immortalized human oral keratinocytes (HOK-18A) are grown. […] The IL-8 levels in the cellular supernatant are determined as well. RNA is converted to cDNA and relative expression of inflammatory mediator genes is determined as described above with respect to the cellular housekeeping gene β-actin.
In HOKs exposed to substrate-treated (substrate concentrations of […]) multi-species biofilms, there are mostly decreases in inflammatory mediator gene expression as measured via SYBR RT-qPCR, the results of which are detailed in Table 7:
Fold changes in inflammatory mediator gene expression from human oral keratinocytes (HOK-18A) exposed to substrate-treated multi-species biofilms are determined relatively to the control through the 2^^-ΔΔCt method and are shown as the geometric mean (C.I.) (n = 3) of the 2^^-ΔΔCt values. All substrates are dissolved in PBS at a concentration of 1 M (upper part) or 1%(w/v) (lower part). Values between 0 and 1 represent relative downregulation, values >1 represent relative upregulation.

[3] = substrate 1 M, listed as D-(+)-raffinose
[4] = lower part of Table 6d, head prints 1 M (lower part 1%(w/v))
[5] = upper part of Table 6d, substrate 1 M, n = 3
[6] = HOK-18A exposed to biofilms treated with substrate 1% (w/v)
[7] = HOK-18A exposed to biofilms treated with substrate 1 M

OC[C@H]1O[C@H](OC[C@H]2O[C@H](O[C@]3(CO)O[C@H](CO)[C@@H](O)[C@@H]3O)[C@H](O)[C@@H](O)[C@@H]2O)[C@H](O)[C@@H](O)[C@H]1O [D-raffinose, D-(+)-raffinose]
absolute abundance of A. actinomycetemcomitans (Aa), mean ± SD log (Geq/mL) (A. actinomycetemcomitans; substrate 1% (w/v)): 9.14 ± 0.12 log (Geq/mL) | absolute abundance of A. actinomycetemcomitans (Aa), mean ± SD log (Geq/mL) (A. actinomycetemcomitans; substrate 1 M in PBS, n = 3): 8.30 ± 0.29^∗ log (Geq/mL) | absolute abundance of A. naeslundii (An), mean ± SD log (Geq/mL) (A. naeslundii; substrate 1% (w/v)): 7.62 ± 0.08 log (Geq/mL) | absolute abundance of A. naeslundii (An), mean ± SD log (Geq/mL) (A. naeslundii; substrate 1 M in PBS, n = 3): 5.32 ± 0.25^∗ log (Geq/mL) | absolute abundance of P. gingivalis (Pg), mean ± SD log (Geq/mL) (P. gingivalis; substrate 1% (w/v)): 6.94 ± 0.21 log (Geq/mL) | absolute abundance of P. gingivalis (Pg), mean ± SD log (Geq/mL) (P. gingivalis; substrate 1 M in PBS, n = 3): 4.59 ± 0.45^∗ log (Geq/mL) | absolute abundance of P. intermedia (Pi), mean ± SD log (Geq/mL) (P. intermedia; substrate 1% (w/v)): 7.83 ± 0.32 log (Geq/mL) | absolute abundance of P. intermedia (Pi), mean ± SD log (Geq/mL) (P. intermedia; substrate 1 M in PBS, n = 3): 5.21 ± 0.77^∗ log (Geq/mL) | absolute abundance of S. gordonii, mean ± SD log (Geq/mL) (S. gordonii; substrate 1% (w/v)): 8.12 ± 0.06 log (Geq/mL) | absolute abundance of S. gordonii, mean ± SD log (Geq/mL) (S. gordonii; substrate 1 M in PBS, n = 3): 8.93 ± 0.31 log (Geq/mL) | absolute abundance of S. mitis, mean ± SD log (Geq/mL) (S. mitis; substrate 1% (w/v)): 2.65 ± 0.00 log (Geq/mL) | absolute abundance of S. mitis, mean ± SD log (Geq/mL) (S. mitis; substrate 1 M in PBS, n = 3): 3.58 ± 1.31 log (Geq/mL) | decrease in S. oralis numbers in comparison to the control (S. oralis; substrate 1% (w/v)): ~ 0.9 log(Geq/mL) | absolute abundance of S. oralis, mean ± SD log (Geq/mL) (S. oralis; substrate 1% (w/v)): 5.98 ± 0.18^∗ log (Geq/mL) | absolute abundance of S. oralis, mean ± SD log (Geq/mL) (S. oralis; substrate 1 M in PBS, n = 3): 8.52 ± 0.17^∗ log (Geq/mL) | absolute abundance of S. sobrinus, mean ± SD log (Geq/mL) (S. sobrinus; substrate 1% (w/v)): 5.36 ± 0.20 log (Geq/mL) | absolute abundance of S. sobrinus, mean ± SD log (Geq/mL) (S. sobrinus; substrate 1 M in PBS, n = 3): 7.06 ± 0.15 log (Geq/mL) | acetate level in biofilm supernatant, mean ± SD (multi-species biofilms; substrate 1% (w/v)): 380 ± 23 mg/L | butyrate level in biofilm supernatant, mean ± SD (multi-species biofilms; substrate 1% (w/v)): 2003 ± 81 mg/L | formate level in biofilm supernatant, mean ± SD (multi-species biofilms; substrate 1% (w/v)): 3748 ± 197 mg/L | lactate level in biofilm supernatant, mean ± SD (multi-species biofilms; substrate 1% (w/v)): -125 ± 0 mg/L | propionate level in biofilm supernatant, mean ± SD (multi-species biofilms; substrate 1% (w/v)): 2033 ± 48 mg/L | acetate level in biofilm supernatant, mean ± SD (multi-species biofilms; substrate 1 M): 2640 ± 154^∗ mg/L | butyrate level in biofilm supernatant, mean ± SD (multi-species biofilms; substrate 1 M): 154 ± 26^∗ mg/L | formate level in biofilm supernatant, mean ± SD (multi-species biofilms; substrate 1 M): 344 ± 25^∗ mg/L | lactate level in biofilm supernatant, mean ± SD (multi-species biofilms; substrate 1 M): 971 ± 43^∗ mg/L | propionate level in biofilm supernatant, mean ± SD (multi-species biofilms; substrate 1 M): 4178 ± 105^∗ mg/L | acetate level in biofilm supernatant, mean ± SD (multi-species biofilms; [3]): 2640 ± 154 mg/L | butyrate level in biofilm supernatant, mean ± SD (multi-species biofilms; [3]): 154 ± 26 mg/L | lactate level in biofilm supernatant, mean ± SD (multi-species biofilms; [3]): 971 ± 43 mg/L | propionate level in biofilm supernatant, mean ± SD (multi-species biofilms; [3]): 4178 ± 105 mg/L | fold change in DnaJ expression, geometric mean (95% C.I.) [1, 4]: 1.56 (0.59-4.12) fold | fold change in DnaK expression, geometric mean (95% C.I.) [1, 4]: 1.76 (0.61-5.06) fold | fold change in ECF expression, geometric mean (95% C.I.) [1, 4]: 0.96 (0.56-1.64) fold | fold change in GroES expression, geometric mean (95% C.I.) [1, 4]: 0.98 (0.24-4.05) fold | fold change in HtpG expression, geometric mean (95% C.I.) [1, 4]: 0.67 (0.43-1.04) fold | fold change in KpsD expression, geometric mean (95% C.I.) [1, 4]: 0.90 (0.58-1.40) fold | fold change in adpc expression, geometric mean (95% C.I.) [1, 4]: 0.85 (0.23-3.13) fold | fold change in clpB expression, geometric mean (95% C.I.) [1, 4]: 1.13 (0.86-1.48) fold | fold change in inpA expression, geometric mean (95% C.I.) [1, 4]: 0.98 (0.64-1.52) fold | fold change in phg expression, geometric mean (95% C.I.) [1, 4]: 0.73 (0.33-1.63) fold | impact on P. intermedia virulence gene expression ([1]; substrate 1% (w/v)): limited impact | downregulation of P. intermedia virulence gene expression ([1]; substrate 1 M): 3 fold | fold change in DnaJ expression, geometric mean (95% C.I.) [1, 5]: 1.76 (0.92-3.37) fold | fold change in DnaK expression, geometric mean (95% C.I.) [1, 5]: 10.07 (6.81-14.89)^∗ fold | fold change in ECF expression, geometric mean (95% C.I.) [1, 5]: 6.74 (1.96-23.20)^∗ fold | fold change in GroES expression, geometric mean (95% C.I.) [1, 5]: 10.59 (4.96-22.60)^∗ fold | fold change in HtpG expression, geometric mean (95% C.I.) [1, 5]: 1.90 (0.99-3.67)^∗ fold | fold change in KpsD expression, geometric mean (95% C.I.) [1, 5]: 1.78 (0.71-4.45) fold | fold change in adpc expression, geometric mean (95% C.I.) [1, 5]: 1.02 (0.40-2.60) fold | fold change in clpB expression, geometric mean (95% C.I.) [1, 5]: 2.21 (1.53-3.21) fold | fold change in inpA expression, geometric mean (95% C.I.) [1, 5]: 1.39 (0.67-2.90) fold | fold change in phg expression, geometric mean (95% C.I.) [1, 5]: 0.33 (0.21-0.50)^∗ fold | fold change in IL-1β gene expression, geometric mean (C.I.) [2, 6]: 0.93 (0.56-1.55) fold | fold change in IL-6 gene expression, geometric mean (C.I.) [2, 6]: 0.70 (0.44-1.13)^∗ fold | fold change in IL-8 gene expression, geometric mean (C.I.) [2, 6]: 1.08 (0.73-1.59) fold | fold change in MMP-8 gene expression, geometric mean (C.I.) [2, 6]: 0.71 (0.38-1.35) fold | fold change in TNF-α gene expression, geometric mean (C.I.) [2, 6]: 0.77 (0.55-1.08) fold | fold change in IL-1β gene expression, geometric mean (C.I.) [2, 7]: 0.8 (0.44-1.46) fold | fold change in IL-6 gene expression, geometric mean (C.I.) [2, 7]: 0.54 (0.17-1.72) fold | fold change in IL-8 gene expression, geometric mean (C.I.) [2, 7]: 0.10 (0.04-0.29)^∗ fold | fold change in MMP-8 gene expression, geometric mean (C.I.) [2, 7]: 0.85 (0.61-1.19) fold | fold change in TNF-α gene expression, geometric mean (C.I.) [2, 7]: 0.66 (0.56-0.78)^∗ fold
